# “Also recorded” adds a separate entry of the source.
# How the values were obtained:
# [1] = PET brain uptake (time activity curves, SUV) in cynomolgus monkey; settings: same monkey
# [2] = biological target: T1, MAO B (Homo sapiens, UniProt P27338); assay: Autoradiography of [^18F]compound 13 on human brain sections (Alzheimer's disease), blocking with MAO B inhibitors; assay type: binding
# T1 construct: investigated on human brain sections from patients with Alzheimer's disease and normal controls; from tissue; host or cells: human brain sections (Alzheimer's disease patients and normal controls)
# T1 sequence (P27338 1-520): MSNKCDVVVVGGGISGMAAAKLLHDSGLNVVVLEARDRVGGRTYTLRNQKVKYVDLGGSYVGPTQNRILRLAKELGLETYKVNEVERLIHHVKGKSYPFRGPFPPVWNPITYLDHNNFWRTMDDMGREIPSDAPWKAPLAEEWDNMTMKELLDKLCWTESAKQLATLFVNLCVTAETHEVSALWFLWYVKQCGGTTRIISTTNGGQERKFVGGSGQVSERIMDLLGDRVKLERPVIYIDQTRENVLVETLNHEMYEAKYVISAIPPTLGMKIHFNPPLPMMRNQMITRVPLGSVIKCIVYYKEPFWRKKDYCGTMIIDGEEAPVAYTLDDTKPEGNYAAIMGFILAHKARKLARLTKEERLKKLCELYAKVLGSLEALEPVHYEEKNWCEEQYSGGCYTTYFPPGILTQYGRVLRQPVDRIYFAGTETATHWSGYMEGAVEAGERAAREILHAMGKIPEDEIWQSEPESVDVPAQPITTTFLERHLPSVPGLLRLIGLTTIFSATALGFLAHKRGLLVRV
# Experimental: Thereafter, the slides were removed and brought to room temperature. […] The sections were dipped two times into ice cold distilled water, dried at room temperature and exposed to PhosphorImanger plates (FUJI BAS 5000) over night. For detection of the specificity of the signals an excess (10 μM) of Deprenyl, Pargylin (both for MAO B) and Clorgyline (for MAO A), respectively, was used. After exposure, the sections were immunohistochemically stained using a standard protocol with an anti-GFAP antibody to detect reactive astrocytes. Amyloid B plaques were detected with BAY 949172 (Rowe CC et al. Lancet Neutol 2008; 7: 129-135) using the binding protocol as described above.
# [3] = Plasma radioactivity and plasma metabolites in cynomolgus monkey; assay type: in vivo
# Source text: Plasma radioactivity profiles have been monitored over time. […] In addition, metabolites occurring in plasma over time have been monitored (FIGS. 8 and 9) for both ligands.
# [4] = Biodistribution in NMRI mice (gamma counter); assay type: in vivo; settings: 0.178 MBq injected, decay corrected
# Experimental: For each time point 3 mice have been used. The mice were injected each with 0.178 MBq[^18F]compound 13. After the respective time points the mice were sacrificed, the organs taken out and measured in a gamma counter. The results were decay corrected.
# [5] = reported in the literature; cited from earlier work
Structure (SMILES),"uptake and enrichment in specific regions, e.g. striatum, higher than [^11C]Deprenyl [1]","relation of autoradiographic signal density and intensity to amyloid β pathology ([2]; Alzheimer's disease brain slices, amyloid detected with BAY 949172)","autoradiographic signal blocked with deprenyl ([2]; human Alzheimer's disease brain slices, 10 Bq/μl tracer, excess (10 μM) of Deprenyl)","autoradiographic signal blocked with pargylin ([2]; human Alzheimer's disease brain slices, 10 Bq/μl tracer, excess (10 μM) of Pargylin)","relation of autoradiographic signal to reactive astrocytes (GFAP immunoreactivity) ([2]; human brain slice from a patient with AD, anti-GFAP staining)",metabolic stability compared to [^11C]Deprenyl (and compound 5) ([3]; plasma metabolites),generation of metabolite b in plasma (level) ([3]; plasma over time),brain uptake of radioactivity ([4]; 2 min p.i.),radioactivity in brain ([4]; 30 min p.i.),radioactivity in brain ([4]; after 4 hours),degradation to metabolite [5]
"C#CCN(C)[C@H](C[18F])Cc1ccccc1 [[^18F]compound 13, N-[(2S)-1-(^18F)fluoro-3-phenylpropan-2-yl]-N-methylprop-2-yn-1-amine]",about 10%,corresponds with the amyloid β plaque load,could be blocked; also recorded: completely blocked,could be blocked,correspondence of the autoradiographic signal to reactive astrocytes is demonstrated,improved metabolic stability; also recorded: more stable,around 10%,7.5 ± 0.04 % ID/g,2.10±0.33 % ID/g,1.34±0.26 % ID/g,–
C#CCN(C)CCCCCC[18F] [compound 5],–,–,–,–,–,–,–,–,–,–,degraded quickly towards a polar [^18F]-labelled metabolite

# From patent US20100233086A1, “COMPOUNDS FOR USE IN IMAGING, DIAGNOSING AND/OR TREATMENT OF DISEASES OF THE CENTRAL NERVOUS SYSTEM OR OF TUMORS” (priority 2007, published 2010)
